# Experimental data from US8637310B2, “Use of a rock inhibitor to sustain primary human keratinocytes in a proliferative state” (The United States of America, as represented by the …, priority 2008, dated 2014).
# Experiments:
# [1] = test system: hTERT mRNA; assay: Real time QRT-PCR of hTERT mRNA; type: cell-based, human
# Procedure: Total cellular RNA was isolated with TRIZol™ reagent (Invitrogen, Carlsbad, Calif.) and treated with DNA-free kit (Ambion, Austin, Tex.). First-strand cDNA was synthesized from 8 μg of total cellular RNA using the Superscript III First-Strand Synthesis System (Invitrogen, Carlsbad, Calif.). RNase H-treated cDNA from 20 ng RNA was amplified by quantitative real time PCR using the Taqman Gene Expression Assay for hTERT (Assay ID: Hs00972646_m1, Applied Biosystems) spanning exons 14 and 15 and human RPLP0 (large ribosomal protein) endogenous control, VIC/MGB Probe, primer limited (Applied Biosystems). All samples were run in triplicate using the ABI 7900HT system and the amount of product was calculated with reference to standard curves generated by 4-fold serial dilutions of a mixed set of cDNAs with high telomerase expression. Values were adjusted relative to the level of RPO transcripts.
# [2] = test system: foreskin keratinocytes; assay: Foreskin keratinocytes grown without fibroblast feeder cells, on plastic, serum-free medium; type: cell-based, human; details: no fibroblast feeder cells
# Procedure: Culturing keratinocytes in the presence of fibroblast feeder cells increases the lifespan of keratinocytes (Fu et al., Cancer Res. 63: 7815-7824, 2003; Rheinwald et al., Mol. Cell Biol. 22: 5157-5172, 2002) and might contribute to the observed immortalization by Y-27632. Therefore, the effect of Y-27632 on foreskin keratinocytes grown in the absence of fibroblast feeder cells, cultured on plastic and in serum-free medium was analyzed. […] Therefore, co-culture with feeder fibroblasts is required in concert with ROCK inhibition to immortalize keratinocytes.
# [3] = test system: human foreskin keratinocytes (HFK); assay: Long-term culture / immortalization of primary human foreskin keratinocytes on irradiated J2 feeder cells; type: cell-based
# Procedure: Primary human foreskin keratinocytes (HFKs) were isolated and pooled from neonatal human foreskins from seven donors and grown in F medium (3: 1(v/v) F-12 Nutrient Mixture: DMEM, 5% FBS, 0.4 μg/ml hydrocortisone, 5 μg/ml insulin, 8.4 ng/ml cholera toxin, 10 ng/ml EGF, and 24 μg/ml adenine) (Jeon et al., Proc. Natl. Acad. Sci. USA 92:1654-1658, 1995) in the presence of irradiated J2 feeder cells. HFKs were divided into 10 cm plates, containing F-media with or without the addition of 10 μM Y-27632 (Alexis Biochemicals, San Diego, Calif.).
# Human foreskin keratinocytes (HFKs) were isolated from pools of at least seven neonatal foreskins and grown in 154 medium supplemented with Human
# Keratinocyte Growth Supplement and Gentamicin/Amphotericin (Invitrogen, Carlsbad, Calif.) or in F medium [3:1 (v/v) F-12 (Ham)-DMEM, 5% FBS, 0.4 μg/ml hydrocortisone, 5 μg/ml insulin, 8.4 ng/ml cholera toxin, 10 ng/ml EGF, 24 μg/ml adenine, 100 U penicillin, 100 μg/ml streptomycin (Invitrogen, cat no. 15140-148)] in the presence of irradiated 3T3 J2 feeder cells (Jeon et al., J. Virol. 69: 2989-2997, 1995).
# (§1) The HPV18 cell line was established by introducing the HPV18 genome into primary HFKs using the Amaxa human keratinocyte nucleofection system. Primary human cervical keratinocytes (HCKs), human vaginal keratinocytes (HVKs), the HPV18 cell lines and the HPV31 positive cell line (CIN-612 9E) were grown in the presence or absence of 10 μM Y-27632 (Alexis Biochemicals), as indicated. Cells were subcultured by removing the fibroblast feeder cells with versene and keratinocytes were collected by trypsinization. At each pass, 2×10^5 cells were plated on a 10 cm plate of J2 feeder cells. Population doubling was calculated as: PD=3.32(log(# cells harvested/# cells seeded)). Immunodetection
# [4] = test system: telomeres; assay: Telomere length assay (real-time PCR); type: cell-based, human
# Procedure: Genomic DNA was extracted from cells and the average telomere length was assessed by a modified method of the real-time PCR-based telomere assay described previously (Cawthon et al., Nucleic Acids Res. 30: e47, 2002; Cawthon, Nucleic Acids Res. 37: e21, 2009). Briefly, the telomere repeat copy number to single gene copy number (T/S) ratio was determined using a Bio-Rad IQ5 thermocycler. Genomic DNA (5 ng) was subjected to PCR reactions and detected with SYBR Green Super Mix (Bio-Rad). The primers for telomere length and HBG1 (a single copy gene) were as follows. Reaction conditions were: 1 cycle, 95° C., 5 minutes; 41 cycles, 95° C., 15 seconds,; 1 cycle, 60° C. for 45 seconds. All reactions were carried out in triplicate and compared to a standard curve of 0, 0.2, 1, 5, 25 and 125 ng genomic DNA (telomere length 10.4 kb) from Roche Telo-kit. The T/S ratio (dCt) for each sample was calculated by normalizing the average HBG Ct value to the average telomere Ct value.
# [5] = test system: human cervical keratinocytes (HCK); assay: Long-term culture / immortalization of primary human cervical keratinocytes on feeder cells; type: cell-based; details: 10 μM Y-27632; FIG. 9
# Procedure: as §1
# [6] = test system: p53; assay: Immunodetection of p53 and p21 during culture; type: cell-based, human; details: keratinocytes cultured with Y-27632
# Procedure: (§2) Proteins were extracted in 2% sodium dodecyl sulfate (SDS), 50 mM Tris-HCl (pH 6.8), 10% glycerol supplemented with inhibitors Complete and PhosphoSTOP (Roche, Indianapolis, Ind.). Protein samples were resolved on NuPage gels, electrotransferred to Immobilon-P membrane (Millipore, Billerica, Mass.), and probed with the relevant antibodies before detection by chemiluminescence. Monoclonal antibody against p53 (DO-1) was obtained from Santa Cruz Biotechnology (Santa Cruz, Calif.). Monoclonal antibody against α-tubulin (B-5-1-2) was obtained from Sigma-Aldrich. Polyclonal antibodies against Myc (N-262), p21 (C-19), and p16 (C-20) were obtained from Santa Cruz Biotechnology.
# [7] = test system: p16^INK4a; assay: Immunodetection of p16INK4a; type: cell-based, human
# Procedure: as §2
# [8] = test system: airway epithelial cells; details: Moore et al. 2004; cited from earlier work
# [9] = test system: CIN612 9E cells; assay: Growth of CIN1-derived cell line CIN612 9E; type: cell-based, human; details: 10 μM Y-27632; 44 days; FIG. 7
# Procedure: The 9E and […] (20863 clone) cell lines were cultured in F-media on irradiated J2 feeder cells. For the Y-27632 experiments they were cultured in F-medium with or without 10 μM Y-27632 and continually passed for the times indicated.
# [10] = 10 μM Y-27632, Example 2, FIG. 14
compound,measurement,setting,value
"CC(N)[C@H]1CC[C@H](C(=O)Nc2ccncc2)CC1 (single isomer, unassigned; (+)) [Y-27632, (+)-trans-N-(4-Pyridyl)-4-(1-aminoethyl)-cyclohexanecarboxamide]",level of hTERT mRNA versus HPV18-immortalized keratinocytes,[1]; by passage 34 in Y-27632,comparable to those in HPV18-immortalized keratinocytes
same,level of hTERT mRNA,"[1]; foreskin keratinocytes with passage in Y-27632, FIG. 11A",increased with passage
same,proliferation in the absence of feeder cells,[2],somewhat increased proliferation
same,bypass of senescence in the absence of feeder cells,[2]; repeated experiments,did not bypass senescence
same,continued division / growth rate beyond senescence of untreated cells (about 15 passages),"[3]; 10 μM Y-27632, Example 1",continued to divide without any decrease in growth rate
same,number of times treated cells were passed,"[3]; 10 μM Y-27632, Example 1",at least 82 times
same,proliferation rate versus untreated cells,"[3]; 10 μM Y-27632, Example 1",proliferated at a rate that exceeded the untreated cells almost immediately
same,time in continuous culture,"[3]; 10 μM Y-27632, Example 1",over 10 months
same,passages in culture,[3]; [10],up to 150 passages
same,period of culture,[3]; [10],500 days
same,bypass of senescence,"[3]; 10 μM Y-27632, FIG. 9",efficiently bypassed senescence with no observed decline in growth rate
same,cellular proliferation,"[3]; 10 μM Y-27632, FIG. 9",dramatic increase in cellular proliferation
same,"population doubling (PD) to which cells were cultured, considered to be immortal","[3]; +Y-27632 (10 μM), HFK strain b",PD199
same,growth after withdrawal of Y-27632,"[3]; withdrawn at passage 48, after 196 days in culture",continued to grow unchecked with only a gradual slowing in the rate of population doubling
same,relative length of telomeres,[4]; passage 50 to 120,became stable
same,relative length of telomeres,"[4]; with passage in Y-27632, FIG. 11B",became progressively shorter with passage
same,bypass of senescence,[5],efficiently bypassed senescence with no observed decline in growth rate
same,cellular proliferation,[5],dramatic increase in cellular proliferation
same,p21 induction,[6],not induced
same,p53 protein levels,[6],gradually increase
same,p16^INK4a levels,[7]; HPV immortalized cells,no effect
same,p16^INK4a mRNA and protein expression,"[7]; after long-term culture with Y-27632, FIG. 12A","still observed, albeit at a low level"
same,effect on airway epithelial cells,[8],"induces membrane ruffling, loss of actin stress fibers and apoptosis"
same,growth rate,[9],no differences in growth rate were observed
